{"source": "patent US6709679B2", "about": "“Antineoplastic conjugates of transferin, albumin and polyethylene glycol” (priority 1996, dated 2004)", "tested_on": "mammary carcinoma MCF-7", "assay": "xeno-transplantable naked-mouse model, mammary carcinoma MCF-7 s.c.", "type": "in vivo, mice (Ncr:nu/nu female)", "procedure": "The dose refers to the amount of doxorubicin available. […] In the case of the highest dose employed in the experiment (12 mg/kg), there appears a very high lethalness (5 of 7 and 7 of 7 animals, respectively) in the therapy with doxorubicin."}
{"smiles": "COc1cccc2c1C(=O)c1c(O)c3c(c(O)c1C2=O)C[C@@](O)(C(=O)CO)C[C@@H]3O[C@H]1C[C@H](N)[C@H](O)[C@H](C)O1", "note": "[doxorubicin]", "values": [{"measurement": "optimum TIC (%)", "setting": "dose 4 mg/kg/inj. i.v. day 16 and 23", "value": 61, "unit": "%"}, {"measurement": "optimum TIC (%)", "setting": "dose 8 mg/kg/inj. i.v. day 16 and 23", "value": 39, "unit": "%"}, {"measurement": "mortality (d)", "setting": "dose 8 mg/kg/inj. i.v. day 16 and 23, number of deaths (day), 8 mice", "value": "1 (26)"}, {"measurement": "mortality (d)", "setting": "dose 12 mg/kg/inj. i.v. day 16 and 23, number of deaths (days), 7 mice", "value": "7 (25-33)"}]}
